Assay results reported in PubChem BioAssay (NCI).
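All cell lines were grown in 96-well plates and treated with compound for 48 hours. TGI: total growth inhibition.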

What was measured:
Assay in all cases: DTP human tumour cell line panel, 48 h
PC-3 prostate = tested on: PC-3 prostate
NCI-H226 lung = tested on: NCI-H226 lung
SW-620 colon = tested on: SW-620 colon
SNB-19 CNS = tested on: SNB-19 CNS
LOX IMVI melanoma = tested on: LOX IMVI melanoma
OVCAR-3 ovarian = tested on: OVCAR-3 ovarian
SK-MEL-2 melanoma = tested on: SK-MEL-2 melanoma
OVCAR-8 ovarian = tested on: OVCAR-8 ovarian
NCI-H460 lung = tested on: NCI-H460 lung
KM12 colon = tested on: KM12 colon
UO-31 renal = tested on: UO-31 renal
RXF 393 renal = tested on: RXF 393 renal
IGROV1 ovarian = tested on: IGROV1 ovarian
ACHN renal = tested on: ACHN renal
HCT-116 colon = tested on: HCT-116 colon
HCT-15 colon = tested on: HCT-15 colon
M14 melanoma = tested on: M14 melanoma
MDA-MB-435 = tested on: MDA-MB-435
SR leukemia = tested on: SR leukemia
SF-268 CNS = tested on: SF-268 CNS
OVCAR-4 ovarian = tested on: OVCAR-4 ovarian
T-47D breast = tested on: T-47D breast
CAKI-1 renal = tested on: CAKI-1 renal
SF-295 CNS = tested on: SF-295 CNS
A549 NSCLC = tested on: A549 NSCLC
MDA-N = tested on: MDA-N
U251 CNS = tested on: U251 CNS
MALME-3M melanoma = tested on: MALME-3M melanoma
DU-145 prostate = tested on: DU-145 prostate
SK-MEL-5 melanoma = tested on: SK-MEL-5 melanoma
K-562 leukemia = tested on: K-562 leukemia
UACC-257 melanoma = tested on: UACC-257 melanoma
OVCAR-5 ovarian = tested on: OVCAR-5 ovarian
786-0 renal = tested on: 786-0 renal
A498 renal = tested on: A498 renal
HCC-2998 colon = tested on: HCC-2998 colon
SF-539 CNS = tested on: SF-539 CNS
SK-OV-3 ovarian = tested on: SK-OV-3 ovarian
HOP-92 NSCLC = tested on: HOP-92 NSCLC
MCF7 breast = tested on: MCF7 breast
TK-10 renal = tested on: TK-10 renal
HT29 colon = tested on: HT29 colon
SNB-75 CNS = tested on: SNB-75 CNS
NCI/ADR-RES ovarian = tested on: NCI/ADR-RES ovarian
NCI-H23 lung = tested on: NCI-H23 lung
HOP-62 NSCLC = tested on: HOP-62 NSCLC
NCI-H522 lung = tested on: NCI-H522 lung
SN12C renal = tested on: SN12C renal
SK-MEL-28 melanoma = tested on: SK-MEL-28 melanoma
COLO 205 colon = tested on: COLO 205 colon

Measured: TGI

N#CCCC1(CCC#N)CCCCCCC(CCC#N)(CCC#N)C(O)C1O (stereo not given)
> 100 µM: all assays above
